Test results published in patent publication US20220395472A1 (Dermavant Sciences GmbH, priority 2021, published 2022).

Test system: adults with plaque psoriasis
Assay: Long-term open-label extension study (PSOARING 3): Physician Global Assessment (PGA), treatment episodes, treatment success, remittive effect
Format: in vivo, human
Description: This extension study consisted of up to 40 weeks of treatment and a 4 week, safety follow up period.
At the completion of the Week 12 visit of the DB, pivotal Phase 3 study, eligibility of the subjects opting to enroll in this extension study was confirmed. Study visits during the treatment period for all subjects occurred every 4 weeks (±3 days). A phone call was performed at Week 2 (Day 15). Unscheduled visits may have occurred, as needed. Subjects who withdrew from this study before Week 40 returned to the study center for an Early Termination visit. The total duration of this extension study participation was 44 weeks. Subjects in this study were treated as follows based on their PGA score from the Week 12 visit in the DB, pivotal Phase 3 study (Study DMVT 505 3001 or Study DMVT 505 3002).
The PGA was used to assess the primary efficacy endpoint in this study. The PGA is a clinical tool for assessing the current state/severity of a subject's psoriasis at a given time point. It is a static, 5 point, morphological assessment of overall disease severity, as determined by the Investigator, using the clinical characteristics of erythema, scaling, and plaque thickness/elevation as guidelines; higher PGA scores represent more severe disease (0=clear, 1=almost clear, 2=mild, 3=moderate, and 4=severe). The BSA affected was not considered in scoring of the PGA. Variations of the PGA are frequently used in clinical studies because it is a simple assessment, similar to those used in clinical practice. The PGA was performed first, prior to the % BSA, PASI, and LTS assessments.
Time to event parameters, such as the time from treatment success to subsequent worsening (PGA≥2) or duration of treatment episode, were summarized by the Kaplan Meier product limit method using OC.

[1] = Week 16, LOCF, Vehicle (Pivotal) group
[2] = Week 16, OC, Vehicle (Pivotal) group
[3] = Week 16 LOCF, Tapinarof (Pivotal)
[4] = Week 16 LOCF, Vehicle (Pivotal)
[5] = Week 16 OC, Tapinarof (Pivotal)

CC(C)c1c(O)cc(/C=C/c2ccccc2)cc1O [Tapinarof, 3,5-Dihydroxy-4-isopropyl-trans-stilbene]
Total Duration of Treatment Success, Median (ITT, Vehicle (Pivotal) group): 97.0 days | tachyphylaxis (decline of clinical effects over time on treatment) (PGA, % BSA, PASI over time): not observed | Subjects with PGA=1 (Week 16, LOCF, Tapinarof (Pivotal) group): 30.4% | Subjects with PGA=0 [1]: 12.7% | Subjects with PGA=1 [1]: 25.8% | Subjects with PGA=1 (Week 16, OC, Tapinarof (Pivotal) group): 32.2% | Subjects with PGA=0 [2]: 12.9% | Subjects with PGA=1 [2]: 28.2% | PGA 0 - Clear (Week 16 LOCF, Overall): 121 (16.2) n (%) | PGA 1 - Almost Clear (Week 16 LOCF, Overall): 215 (28.9) n (%) | PGA 2 - Mild (Week 16 LOCF, Overall): 279 (37.4) n (%) | PGA 3 - Moderate (Week 16 LOCF, Overall): 119 (16.0) n (%) | PGA 4 - Severe (Week 16 LOCF, Overall): 11 (1.5) n (%) | PGA Change from Baseline: Improved by 1 (Week 16 LOCF, Overall): 219 (29.5) n (%) | PGA Change from Baseline: Improved by 2 (Week 16 LOCF, Overall): 91 (12.3) n (%) | PGA Change from Baseline: Improved by 3 (Week 16 LOCF, Overall): 14 (1.9) n (%) | PGA Change from Baseline: Improved by 4 (Week 16 LOCF, Overall): 2 (0.3) n (%) | PGA Change from Baseline: No Change (Week 16 LOCF, Overall): 297 (40.0) n (%) | PGA Change from Baseline: Worsened by 1 (Week 16 LOCF, Overall): 86 (11.6) n (%) | PGA Change from Baseline: Worsened by 2 (Week 16 LOCF, Overall): 28 (3.8) n (%) | PGA Change from Baseline: Worsened by 3 (Week 16 LOCF, Overall): 5 (0.7) n (%) | PGA Change from Baseline: Worsened by 4 (Week 16 LOCF, Overall): 0 (0.0) n (%) | PGA 1 - Almost Clear [3]: 150 (30.4) n (%) | PGA 2 - Mild [3]: 174 (35.3) n (%) | PGA 3 - Moderate [3]: 74 (15.0) n (%) | PGA 4 - Severe [3]: 6 (1.2) n (%) | PGA Change from Baseline: Improved by 1 [3]: 122 (24.8) n (%) | PGA Change from Baseline: Improved by 2 [3]: 37 (7.5) n (%) | PGA Change from Baseline: Improved by 3 [3]: 1 (0.2) n (%) | PGA Change from Baseline: Improved by 4 [3]: 1 (0.2) n (%) | PGA Change from Baseline: No Change [3]: 223 (45.4) n (%) | PGA Change from Baseline: Worsened by 1 [3]: 77 (15.7) n (%) | PGA Change from Baseline: Worsened by 2 [3]: 25 (5.1) n (%) | PGA Change from Baseline: Worsened by 3 [3]: 5 (1.0) n (%) | PGA Change from Baseline: Worsened by 4 [3]: 0 (0.0) n (%) | PGA 0 - Clear [4]: 32 (12.7) n (%) | PGA 1 - Almost Clear [4]: 65 (25.8) n (%) | PGA 3 - Moderate [4]: 45 (17.9) n (%) | PGA 4 - Severe [4]: 5 (2.0) n (%) | PGA Change from Baseline: Improved by 1 [4]: 97 (38.6) n (%) | PGA Change from Baseline: Improved by 2 [4]: 54 (21.5) n (%) | PGA Change from Baseline: Improved by 3 [4]: 13 (5.2) n (%) | PGA Change from Baseline: Improved by 4 [4]: 1 (0.4) n (%) | PGA Change from Baseline: No Change [4]: 74 (29.5) n (%) | PGA Change from Baseline: Worsened by 1 [4]: 9 (3.6) n (%) | PGA Change from Baseline: Worsened by 2 [4]: 3 (1.2) n (%) | PGA Change from Baseline: Worsened by 3 [4]: 0 (0.0) n (%) | PGA Change from Baseline: Worsened by 4 [4]: 0 (0.0) n (%) | PGA 0 - Clear (Week 16 OC, Overall): 107 (17.0) n (%) | PGA 1 - Almost Clear (Week 16 OC, Overall): 194 (30.9) n (%) | PGA 2 - Mild (Week 16 OC, Overall): 236 (37.6) n (%) | PGA 3 - Moderate (Week 16 OC, Overall): 86 (13.7) n (%) | PGA 4 - Severe (Week 16 OC, Overall): 5 (0.8) n (%) | PGA Change from Baseline: Improved by 1 (Week 16 OC, Overall): 190 (30.3) n (%) | PGA Change from Baseline: Improved by 2 (Week 16 OC, Overall): 77 (12.3) n (%) | PGA Change from Baseline: Improved by 3 (Week 16 OC, Overall): 13 (2.1) n (%) | PGA Change from Baseline: Improved by 4 (Week 16 OC, Overall): 2 (0.3) n (%) | PGA Change from Baseline: No Change (Week 16 OC, Overall): 246 (39.2) n (%) | PGA Change from Baseline: Worsened by 1 (Week 16 OC, Overall): 69 (11.0) n (%) | PGA Change from Baseline: Worsened by 2 (Week 16 OC, Overall): 25 (4.0) n (%) | PGA Change from Baseline: Worsened by 3 (Week 16 OC, Overall): 5 (0.8) n (%) | PGA Change from Baseline: Worsened by 4 (Week 16 OC, Overall): 0 (0.0) n (%) | PGA 0 - Clear [5]: 80 (19.1) n (%) | PGA 1 - Almost Clear [5]: 135 (32.2) n (%) | PGA 2 - Mild [5]: 146 (34.8) n (%) | PGA 3 - Moderate [5]: 54 (12.9) n (%) | PGA 4 - Severe [5]: 4 (1.0) n (%) | PGA Change from Baseline: Improved by 1 [5]: 109 (26.1) n (%) | PGA Change from Baseline: Improved by 2 [5]: 29 (6.9) n (%) | PGA Change from Baseline: Improved by 3 [5]: 1 (0.2) n (%) | PGA Change from Baseline: Improved by 4 [5]: 1 (0.2) n (%) | PGA Change from Baseline: No Change [5]: 187 (44.7) n (%) | PGA Change from Baseline: Worsened by 2 [5]: 23 (5.5) n (%) | PGA Change from Baseline: Worsened by 3 [5]: 5 (1.2) n (%) | PGA Change from Baseline: Worsened by 4 [5]: 0 (0.0) n (%) | PGA 0 - Clear (Week 16 OC, Vehicle (Pivotal)): 27 (12.9) n (%) | PGA 1 - Almost Clear (Week 16 OC, Vehicle (Pivotal)): 59 (28.2) n (%) | PGA 2 - Mild (Week 16 OC, Vehicle (Pivotal)): 90 (43.1) n (%) | PGA 3 - Moderate (Week 16 OC, Vehicle (Pivotal)): 32 (15.3) n (%) | PGA 4 - Severe (Week 16 OC, Vehicle (Pivotal)): 1 (0.5) n (%) | PGA Change from Baseline: Improved by 1 (Week 16 OC, Vehicle (Pivotal)): 81 (38.8) n (%) | PGA Change from Baseline: Improved by 2 (Week 16 OC, Vehicle (Pivotal)): 48 (23.0) n (%) | PGA Change from Baseline: Improved by 3 (Week 16 OC, Vehicle (Pivotal)): 12 (5.7) n (%)
